Tests used:
Test in all cases: relative viability (nuclei count vs DMSO), 5 days (fraction); higher = more cells survive
[1] = compound: CS(=O)(=O)N1CCN(Cc2cc3nc(-c4cccc5[nH]ncc45)nc(N4CCOCC4)c3s2)CC1 [Pictilisib] + Cc1nc(Nc2ncc(C(=O)Nc3c(C)cccc3Cl)s2)cc(N2CCN(CCO)CC2)n1 [Dasatinib] (partner 0.075 µM)
Method in brief: (§1)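 Each reported value is a median over duplicate plates. It expresses relative viability: treated-well nuclei count divided by vehicle-well nuclei count. Lung cancer cell lines in 1536-well plates were dosed by pin tool a day after seeding, alone with one drug or with a fixed anchor-drug dose plus five library-drug doses (not always all listed) in √10 steps, and nuclei were counted after 5 days.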

[2] = compound: NC1(c2ccc(-c3nc4ccn5c(=O)[nH]nc5c4cc3-c3ccccc3)cc2)CCC1 [MK-2206] + Nc1nc2[nH]cc(CCc3ccc(C(=O)N[C@@H](CCC(=O)O)C(=O)O)cc3)c2c(=O)[nH]1 [Pemetrexed] (partner 0.2 µM)
Method in brief: as §1

[3] = compound: NC1(c2ccc(-c3nc4ccn5c(=O)[nH]nc5c4cc3-c3ccccc3)cc2)CCC1 [MK-2206] + CC1(C)CCC(c2ccc(Cl)cc2)=C(CN2CCN(c3ccc(C(=O)NS(=O)(=O)c4ccc(N[C@H](CCN5CCOCC5)CSc5ccccc5)c(S(=O)(=O)C(F)(F)F)c4)cc3)CC2)C1 [Navitoclax] (partner 0.5 µM)
Method in brief: as §1

[4] = compound: NC1(c2ccc(-c3nc4ccn5c(=O)[nH]nc5c4cc3-c3ccccc3)cc2)CCC1 [MK-2206] + COc1cccc2cc(-c3nc([C@H]4CC[C@H](C(=O)O)CC4)n4ncnc(N)c34)[nH]c12 [OSI-027] (partner 0.5 µM)
Method in brief: as §1

[5] = compound: NC1(c2ccc(-c3nc4ccn5c(=O)[nH]nc5c4cc3-c3ccccc3)cc2)CCC1 [MK-2206] + N=C(N)NC(=N)NCCc1ccccc1 [Phenformin] (partner 250 µM)
Method in brief: as §1

Cell Line | relative viability ([1]; first compound 0.02 µM) | relative viability ([1]; first compound 0.06325 µM) | relative viability ([1]; first compound 0.6325 µM) | relative viability ([1]; first compound 2 µM) | relative viability ([2]; first compound 0.01 µM) | relative viability ([2]; first compound 0.03162 µM) | relative viability ([2]; first compound 0.3162 µM) | relative viability ([2]; first compound 1 µM) | relative viability ([3]; first compound 0.01 µM) | relative viability ([3]; first compound 0.03162 µM) | relative viability ([3]; first compound 0.3162 µM) | relative viability ([3]; first compound 1 µM) | relative viability ([4]; first compound 0.01 µM) | relative viability ([4]; first compound 0.03162 µM) | relative viability ([4]; first compound 0.3162 µM) | relative viability ([4]; first compound 1 µM) | relative viability ([5]; first compound 0.01 µM) | relative viability ([5]; first compound 0.03162 µM) | relative viability ([5]; first compound 0.3162 µM) | relative viability ([5]; first compound 1 µM)
NCI-H2405 | 0.231 | 0.217 | 0.189 | 0.168 | 1.01 | 1.07 | 1.02 | 0.978 | 0.838 | 1.06 | 0.83 | 0.779 | 0.661 | 0.641 | 0.56 | 0.452 | 0.392 | 0.402 | 0.36 | 0.321
NCI-H3122 | 0.876 | 0.926 | 0.54 | 0.179 | 0.202 | 0.197 | 0.203 | 0.193 | 1.02 | 1.03 | 1.01 | 0.958 | 0.875 | 0.963 | 0.424 | 0.163 | 0.367 | 0.414 | 0.395 | 0.353
PC-3 [JPC-3] | 0.965 | 1.02 | 1.03 | 0.555 | 1.12 | 1.24 | 1.23 | 1.07 | 0.817 | 0.849 | 0.83 | 0.825 | 0.825 | 0.749 | 0.6 | 0.641 | 0.48 | 0.486 | 0.475 | 0.466
PC-14 | 0.274 | 0.291 | 0.17 | 0.095 | 0.129 | 0.14 | 0.164 | 0.144 | 0.956 | 1.05 | 1.1 | 1.01 | 0.746 | 0.911 | 0.597 | 0.661 | 0.493 | 0.663 | 0.584 | 0.525
RERF-LC-KJ | 0.802 | 0.811 | 0.687 | 0.451 | 0.489 | 0.471 | 0.532 | 0.476 | 0.836 | 1.28 | 0.708 | 0.69 | 0.647 | 0.531 | 0.417 | 0.381 | 0.413 | 0.423 | 0.408 | 0.333
SK-LU-1 | 0.159 | 0.168 | 0.103 | 0.109 | 0.964 | 0.963 | 1.04 | 0.962 | 1.01 | 0.992 | 1.08 | 0.874 | 0.349 | 0.325 | 0.224 | 0.325 | 0.536 | 0.602 | 0.476 | 0.503
SK-MES-1 | 0.304 | 0.308 | 0.128 | 0.117 | 0.881 | 0.938 | 0.899 | 0.816 | 1.29 | 1.2 | 1.01 | 1.1 | 0.62 | 0.502 | 0.452 | 0.504 | 0.65 | 0.72 | 0.609 | 0.57
SW 1573 | 0.485 | 0.524 | 0.288 | 0.161 | 0.782 | 0.793 | 0.726 | 0.713 | 0.876 | 0.937 | 0.714 | 0.737 | 0.628 | 0.491 | 0.298 | 0.423 | 0.419 | 0.457 | 0.27 | 0.237
